{"source": "patent US11324178B2", "about": "“Wheat having resistance to glyphosate due to alterations in 5-enol- pyruvylshikimate-3 phosphate synthase” (priority 2015, dated 2022)", "key": {"[1]": {"tested_on": "wheat seeds homozygous for the double preferred EPSPS mutations (T173I D genome and P177S A genome)", "assay": "Growth chamber germination on MS medium containing glyphosate, shoot and root length", "assay_type": "in vivo, Triticum aestivum", "conditions": "MS media containing glyphosate, double mutation seeds compared with single mutation seeds", "description": "(§1) Plants homozygous for the single preferred mutations (the T173I mutation in the B genome, the T173I mutation in the D genome and the P177S mutation in the A genome) were identified in the M3 seeds. Wild type siblings were also identified and used as controls. Plants that were homozygous for the T173I mutation in the D genome were crossed to plants that were homozygous for the P177S mutation in the A genome to generate double mutant plants.\n(§2) Growth Chamber Studies: Seeds from plants that were homozygous for one of the single preferred mutations and seeds from their wild type sibling control plants were surface sterilized, placed on moist germination paper overnight, and then grown in glass tubes with 0.1× Murashige & Skoog (MS) medium containing 0 or 0.15 mM glyphosate. Germination was performed in a growth chamber under a light condition of 16 hours of light/8 hours of dark of 80 microEinsteins. At 10-14 days of development, shoot and root lengths were measured.\n(§3) Seeds from plants that were homozygous for the double preferred mutations (both T173 I and P177S) were compared to seeds that were homozygous for each of the single preferred mutation for their ability to survive on MS media containing glyphosate. Seeds from their wild type sibling plants were used as […]. Seeds were germinated as described above."}, "[2]": {"tested_on": "wild type sibling control seeds (wheat cultivar Express)", "assay": "Growth chamber germination on MS medium containing glyphosate, shoot and root length", "assay_type": "in vivo, Triticum aestivum", "conditions": "0.1x MS medium, 0.15 mM glyphosate, 10-14 days of development", "description": "as §1, §2, §3"}, "[3]": {"tested_on": "wheat seeds homozygous for one single preferred EPSPS mutation (T173I B genome, T173I D genome or P177S A genome)", "assay": "Growth chamber germination on MS medium containing glyphosate, shoot and root length", "assay_type": "in vivo, Triticum aestivum", "conditions": "0.1x MS medium, 0.15 mM glyphosate, 10-14 days of development", "description": "as §1, §2, §3"}, "E. coli EPSPS T97I": {"target": "E. coli EPSPS T97I (Escherichia coli, UniProt P0A6D3, T97I)", "sequence (P0A6D3 whole entry T97I)": "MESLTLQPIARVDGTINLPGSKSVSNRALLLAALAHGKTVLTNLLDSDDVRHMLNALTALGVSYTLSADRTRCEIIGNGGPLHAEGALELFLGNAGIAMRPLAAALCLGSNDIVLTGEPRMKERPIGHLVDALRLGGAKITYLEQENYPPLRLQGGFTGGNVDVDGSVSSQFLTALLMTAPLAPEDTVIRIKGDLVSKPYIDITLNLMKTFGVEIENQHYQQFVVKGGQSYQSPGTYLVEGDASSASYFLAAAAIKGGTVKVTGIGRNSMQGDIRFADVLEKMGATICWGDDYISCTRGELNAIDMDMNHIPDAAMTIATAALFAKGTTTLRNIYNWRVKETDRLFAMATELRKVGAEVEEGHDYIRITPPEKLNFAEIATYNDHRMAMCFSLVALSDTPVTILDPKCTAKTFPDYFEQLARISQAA", "conditions": "Funke et al. 2009; cited from earlier work"}, "[4]": {"tested_on": "maize EPSPS (threonine to isoleucine)", "conditions": "U.S. Pat. No. 6,566,587; cited from earlier work"}}, "note": "Entries after “also recorded” stand apart in the source; their conditions may differ."}
{"compound": "O=C(O)CNCP(=O)(O)O", "note": "[glyphosate]", "values": [{"measurement": "growth (shoot and root length) of seeds on medium containing glyphosate", "setting": "[1]", "value": "more resistant to glyphosate than seeds that were homozygous for each of the single preferred mutations"}, {"measurement": "growth (shoot and root length) of seeds on medium containing glyphosate", "setting": "[2]", "value": "for the most part failed to grow"}, {"measurement": "growth (shoot and root length) of seeds on medium containing glyphosate", "setting": "[3]", "value": "the majority of seeds with mutations grew well; also recorded: resistant to glyphosate and grew well"}, {"measurement": "sensitivity of mutated enzyme to glyphosate", "setting": "E. coli EPSPS T97I", "value": "leads to sensitivity to glyphosate"}, {"measurement": "inhibition of mutated enzyme by glyphosate", "setting": "[4]", "value": "reduced inhibition by glyphosate"}]}
